According to the supplement of paper PMC10307832:

Key:
Experiment in all cases: relative viability (nuclei count vs DMSO), 5 days (fraction); higher = more cells survive
Entinostat + Linsitinib = compound: Nc1ccccc1NC(=O)c1ccc(CNC(=O)OCc2cccnc2)cc1 [Entinostat] + C[C@]1(O)C[C@@H](c2nc(-c3ccc4ccc(-c5ccccc5)nc4c3)c3c(N)nccn32)C1 [Linsitinib] (partner 1 µM)
Procedure, shortened: (§1)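 A single step with final 0.05% Triton X-100, 1% formaldehyde and 1 ug/ml Hoechst fixed the cells and stained nuclei 5 days after treatment. Lung cancer cell lines in 1536-well plates had been treated by pin tool the day after seeding with one drug alone or a fixed anchor-drug dose plus five library-drug doses (not always all listed) in √10 steps, and nuclei were counted on 4× images. Relative viability is the ratio of nuclei in treated wells to nuclei in vehicle wells, taken as the median of duplicate plates.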

SGI-1776 + Lapatinib = compound: CN1CCC(CNc2ccc3ncc(-c4cccc(OC(F)(F)F)c4)n3n2)CC1 [SGI-1776] + CS(=O)(=O)CCNCc1ccc(-c2ccc3ncnc(Nc4ccc(OCc5cccc(F)c5)c(Cl)c4)c3c2)o1 [Lapatinib] (partner 2 µM)
Procedure, shortened: as §1

Entinostat + Tozasertib = compound: Nc1ccccc1NC(=O)c1ccc(CNC(=O)OCc2cccnc2)cc1 [Entinostat] + Cc1cc(Nc2cc(N3CCN(C)CC3)nc(Sc3ccc(NC(=O)C4CC4)cc3)n2)n[nH]1 [Tozasertib] (partner 0.1 µM)
Procedure, shortened: as §1

[1] = compound: C1COCCN1C2=NC(=NC3=C2OC4=C3C=CC=N4)C5=CC(=CC=C5)NC(=O)C6=CN=C(C=C6)N + C[C@@H](Oc1cc(-c2cnn(C3CCNCC3)c2)cnc1N)c1c(Cl)ccc(F)c1Cl [Crizotinib] (partner 1 µM)
Procedure, shortened: as §1

## HCC-78
Entinostat + Linsitinib; first compound 0.02 µM
  relative viability: 0.496
Entinostat + Linsitinib; first compound 0.06325 µM
  relative viability: 0.395
Entinostat + Linsitinib; first compound 0.2 µM
  relative viability: 0.306
Entinostat + Linsitinib; first compound 0.6325 µM
  relative viability: 0.156
Entinostat + Linsitinib; first compound 2 µM
  relative viability: 0.151
SGI-1776 + Lapatinib; first compound 0.08 µM
  relative viability: 0.848
SGI-1776 + Lapatinib; first compound 0.8 µM
  relative viability: 0.7
SGI-1776 + Lapatinib; first compound 2.53 µM
  relative viability: 0.783
SGI-1776 + Lapatinib; first compound 8 µM
  relative viability: 0.698
Entinostat + Tozasertib; first compound 0.02 µM
  relative viability: 0.577
Entinostat + Tozasertib; first compound 0.06325 µM
  relative viability: 0.432
Entinostat + Tozasertib; first compound 0.2 µM
  relative viability: 0.248
Entinostat + Tozasertib; first compound 0.6325 µM
  relative viability: 0.241
Entinostat + Tozasertib; first compound 2 µM
  relative viability: 0.173
[1]; first compound 0.02 µM
  relative viability: 0.352
[1]; first compound 0.06325 µM
  relative viability: 0.327
[1]; first compound 0.2 µM
  relative viability: 0.329
[1]; first compound 0.6325 µM
  relative viability: 0.282
[1]; first compound 2 µM
  relative viability: 0.261

## HCC-366
Entinostat + Linsitinib; first compound 0.02 µM
  relative viability: 0.859
Entinostat + Linsitinib; first compound 0.06325 µM
  relative viability: 0.758
Entinostat + Linsitinib; first compound 0.2 µM
  relative viability: 0.461
Entinostat + Linsitinib; first compound 0.6325 µM
  relative viability: 0.175
Entinostat + Linsitinib; first compound 2 µM
  relative viability: 0.0447
SGI-1776 + Lapatinib; first compound 0.08 µM
  relative viability: 1.12
SGI-1776 + Lapatinib; first compound 0.8 µM
  relative viability: 0.95
SGI-1776 + Lapatinib; first compound 2.53 µM
  relative viability: 0.992
SGI-1776 + Lapatinib; first compound 8 µM
  relative viability: 0.837
Entinostat + Tozasertib; first compound 0.02 µM
  relative viability: 0.0983
Entinostat + Tozasertib; first compound 0.06325 µM
  relative viability: 0.0503
Entinostat + Tozasertib; first compound 0.2 µM
  relative viability: 0.0518
Entinostat + Tozasertib; first compound 0.6325 µM
  relative viability: 0.0518
Entinostat + Tozasertib; first compound 2 µM
  relative viability: 0.0252
[1]; first compound 0.02 µM
  relative viability: 0.594
[1]; first compound 0.06325 µM
  relative viability: 0.808
[1]; first compound 0.2 µM
  relative viability: 0.575
[1]; first compound 0.6325 µM
  relative viability: 0.629
[1]; first compound 2 µM
  relative viability: 0.327

## HCC-827
Entinostat + Linsitinib; first compound 0.02 µM
  relative viability: 0.958
Entinostat + Linsitinib; first compound 0.06325 µM
  relative viability: 0.883
Entinostat + Linsitinib; first compound 0.2 µM
  relative viability: 0.722
Entinostat + Linsitinib; first compound 0.6325 µM
  relative viability: 0.582
Entinostat + Linsitinib; first compound 2 µM
  relative viability: 0.421
SGI-1776 + Lapatinib; first compound 0.08 µM
  relative viability: 0.168
SGI-1776 + Lapatinib; first compound 0.8 µM
  relative viability: 0.201
SGI-1776 + Lapatinib; first compound 2.53 µM
  relative viability: 0.16
SGI-1776 + Lapatinib; first compound 8 µM
  relative viability: 0.194
Entinostat + Tozasertib; first compound 0.02 µM
  relative viability: 0.425
Entinostat + Tozasertib; first compound 0.06325 µM
  relative viability: 0.406
Entinostat + Tozasertib; first compound 0.2 µM
  relative viability: 0.335
Entinostat + Tozasertib; first compound 0.6325 µM
  relative viability: 0.302
Entinostat + Tozasertib; first compound 2 µM
  relative viability: 0.184
[1]; first compound 0.02 µM
  relative viability: 0.905
[1]; first compound 0.06325 µM
  relative viability: 0.97
[1]; first compound 0.2 µM
  relative viability: 0.91
[1]; first compound 0.6325 µM
  relative viability: 0.985
[1]; first compound 2 µM
  relative viability: 0.93

## HOP-62
Entinostat + Linsitinib; first compound 0.02 µM
  relative viability: 0.743
Entinostat + Linsitinib; first compound 0.06325 µM
  relative viability: 1.01
Entinostat + Linsitinib; first compound 0.2 µM
  relative viability: 0.711
Entinostat + Linsitinib; first compound 0.6325 µM
  relative viability: 0.403
Entinostat + Linsitinib; first compound 2 µM
  relative viability: 0.266
SGI-1776 + Lapatinib; first compound 0.08 µM
  relative viability: 1.19
SGI-1776 + Lapatinib; first compound 0.8 µM
  relative viability: 0.954
SGI-1776 + Lapatinib; first compound 2.53 µM
  relative viability: 1.16
SGI-1776 + Lapatinib; first compound 8 µM
  relative viability: 0.928
Entinostat + Tozasertib; first compound 0.02 µM
  relative viability: 0.355
Entinostat + Tozasertib; first compound 0.06325 µM
  relative viability: 0.312
Entinostat + Tozasertib; first compound 0.2 µM
  relative viability: 0.304
Entinostat + Tozasertib; first compound 0.6325 µM
  relative viability: 0.228
Entinostat + Tozasertib; first compound 2 µM
  relative viability: 0.152
[1]; first compound 0.02 µM
  relative viability: 1.08
[1]; first compound 0.06325 µM
  relative viability: 1.14
[1]; first compound 0.2 µM
  relative viability: 0.714
[1]; first compound 0.6325 µM
  relative viability: 0.695
[1]; first compound 2 µM
  relative viability: 0.65

## IA-LM
Entinostat + Linsitinib; first compound 0.02 µM
  relative viability: 0.645
Entinostat + Linsitinib; first compound 0.06325 µM
  relative viability: 0.774
Entinostat + Linsitinib; first compound 0.2 µM
  relative viability: 0.785
Entinostat + Linsitinib; first compound 0.6325 µM
  relative viability: 0.628
Entinostat + Linsitinib; first compound 2 µM
  relative viability: 0.543
SGI-1776 + Lapatinib; first compound 0.08 µM
  relative viability: 0.923
SGI-1776 + Lapatinib; first compound 0.8 µM
  relative viability: 0.726
SGI-1776 + Lapatinib; first compound 8 µM
  relative viability: 0.72
[1]; first compound 0.02 µM
  relative viability: 1.05
[1]; first compound 0.06325 µM
  relative viability: 0.733
[1]; first compound 0.2 µM
  relative viability: 0.619
[1]; first compound 0.6325 µM
  relative viability: 0.58
[1]; first compound 2 µM
  relative viability: 0.369

## LC-2-ad
Entinostat + Linsitinib; first compound 0.02 µM
  relative viability: 0.769
Entinostat + Linsitinib; first compound 0.06325 µM
  relative viability: 0.831
Entinostat + Linsitinib; first compound 0.2 µM
  relative viability: 0.7
Entinostat + Linsitinib; first compound 0.6325 µM
  relative viability: 0.489
Entinostat + Linsitinib; first compound 2 µM
  relative viability: 0.219
SGI-1776 + Lapatinib; first compound 0.08 µM
  relative viability: 1.04
SGI-1776 + Lapatinib; first compound 0.8 µM
  relative viability: 0.95
SGI-1776 + Lapatinib; first compound 2.53 µM
  relative viability: 1.01
SGI-1776 + Lapatinib; first compound 8 µM
  relative viability: 0.88
Entinostat + Tozasertib; first compound 0.02 µM
  relative viability: 0.425
Entinostat + Tozasertib; first compound 0.06325 µM
  relative viability: 0.367
Entinostat + Tozasertib; first compound 0.2 µM
  relative viability: 0.368
Entinostat + Tozasertib; first compound 0.6325 µM
  relative viability: 0.299
Entinostat + Tozasertib; first compound 2 µM
  relative viability: 0.242
[1]; first compound 0.02 µM
  relative viability: 0.486
[1]; first compound 0.06325 µM
  relative viability: 0.494
[1]; first compound 0.2 µM
  relative viability: 0.411
[1]; first compound 0.6325 µM
  relative viability: 0.5
[1]; first compound 2 µM
  relative viability: 0.387

## LCLC-97TM1
Entinostat + Linsitinib; first compound 0.02 µM
  relative viability: 0.158
Entinostat + Linsitinib; first compound 0.06325 µM
  relative viability: 0.147
Entinostat + Linsitinib; first compound 0.2 µM
  relative viability: 0.139
Entinostat + Linsitinib; first compound 0.6325 µM
  relative viability: 0.165
Entinostat + Linsitinib; first compound 2 µM
  relative viability: 0.14
SGI-1776 + Lapatinib; first compound 0.08 µM
  relative viability: 1
SGI-1776 + Lapatinib; first compound 0.8 µM
  relative viability: 0.79
SGI-1776 + Lapatinib; first compound 2.53 µM
  relative viability: 1.14
SGI-1776 + Lapatinib; first compound 8 µM
  relative viability: 0.95
Entinostat + Tozasertib; first compound 0.02 µM
  relative viability: 0.218
Entinostat + Tozasertib; first compound 0.06325 µM
  relative viability: 0.213
Entinostat + Tozasertib; first compound 0.2 µM
  relative viability: 0.192
Entinostat + Tozasertib; first compound 0.6325 µM
  relative viability: 0.177
Entinostat + Tozasertib; first compound 2 µM
  relative viability: 0.167
[1]; first compound 0.06325 µM
  relative viability: 0.407
[1]; first compound 0.2 µM
  relative viability: 0.321
[1]; first compound 0.6325 µM
  relative viability: 0.341
[1]; first compound 2 µM
  relative viability: 0.308

## LCLC-103H
Entinostat + Linsitinib; first compound 0.02 µM
  relative viability: 1.07
Entinostat + Linsitinib; first compound 0.06325 µM
  relative viability: 1.12
Entinostat + Linsitinib; first compound 0.2 µM
  relative viability: 0.937
Entinostat + Linsitinib; first compound 0.6325 µM
  relative viability: 0.931
Entinostat + Linsitinib; first compound 2 µM
  relative viability: 0.715
Entinostat + Tozasertib; first compound 0.02 µM
  relative viability: 0.495
Entinostat + Tozasertib; first compound 0.06325 µM
  relative viability: 0.35
Entinostat + Tozasertib; first compound 0.2 µM
  relative viability: 0.366
Entinostat + Tozasertib; first compound 0.6325 µM
  relative viability: 0.308
Entinostat + Tozasertib; first compound 2 µM
  relative viability: 0.214
[1]; first compound 0.02 µM
  relative viability: 1.03
[1]; first compound 0.06325 µM
  relative viability: 1.15
[1]; first compound 0.2 µM
  relative viability: 1.09
[1]; first compound 0.6325 µM
  relative viability: 0.957
[1]; first compound 2 µM
  relative viability: 0.974

## LK-2
Entinostat + Linsitinib; first compound 0.02 µM
  relative viability: 0.522
Entinostat + Linsitinib; first compound 0.06325 µM
  relative viability: 0.59
Entinostat + Linsitinib; first compound 0.2 µM
  relative viability: 0.639
Entinostat + Linsitinib; first compound 0.6325 µM
  relative viability: 0.459
Entinostat + Linsitinib; first compound 2 µM
  relative viability: 0.274
SGI-1776 + Lapatinib; first compound 0.08 µM
  relative viability: 1.13
SGI-1776 + Lapatinib; first compound 0.8 µM
  relative viability: 1.06
SGI-1776 + Lapatinib; first compound 2.53 µM
  relative viability: 0.781
SGI-1776 + Lapatinib; first compound 8 µM
  relative viability: 0.75
Entinostat + Tozasertib; first compound 0.02 µM
  relative viability: 0.151
Entinostat + Tozasertib; first compound 0.06325 µM
  relative viability: 0.176
Entinostat + Tozasertib; first compound 0.2 µM
  relative viability: 0.168
Entinostat + Tozasertib; first compound 0.6325 µM
  relative viability: 0.159
Entinostat + Tozasertib; first compound 2 µM
  relative viability: 0.168
[1]; first compound 0.02 µM
  relative viability: 0.21
[1]; first compound 0.06325 µM
  relative viability: 0.247
[1]; first compound 0.2 µM
  relative viability: 0.203
[1]; first compound 0.6325 µM
  relative viability: 0.279
[1]; first compound 2 µM
  relative viability: 0.258
